Calls of active or inactive are those of the source. The calls are words filed in the database; no cut-off is given here.
Tests used:
Acinetobacter baumannii = assay: Selectivity ratio of MBC for Acinetobacter baumannii ATCC19606 to MIC for Acinetobacter baumannii ATCC19606; format: functional
Bacillus subtilis [1] = assay: Selectivity ratio of MBC for penicillin-susceptible Bacillus subtilis ATCC9372 to MIC for penicillin-susceptible Bacillus subtilis ATCC9372; format: functional
Staphylococcus aureus [2] = assay: Selectivity ratio of MBC for erythromycin-susceptible Staphylococcus aureus ATCC25923 to MIC for erythromycin-susceptible Staphylococcus aureus ATCC25923; format: functional
[3] = tested on: Staphylococcus epidermidis; assay: Antibacterial activity against penicillin-resistant Staphylococcus epidermidis clinical isolate assessed as bacterial growth inhibition incubated for 20 hrs by CLSI based broth microdilution method; format: functional
Enterococcus faecalis = assay: Antibacterial activity against vancomycin-resistant Enterococcus faecalis ATCC51299 assessed as bacterial growth inhibition incubated for 20 hrs by CLSI based broth microdilution method; format: functional
Enterococcus faecium = assay: Antibacterial activity against vancomycin-resistant Enterococcus faecium ATCC51559 assessed as bacterial growth inhibition incubated for 20 hrs by CLSI based broth microdilution method; format: functional
Bacillus subtilis [4] = assay: Induction of morphological change in Bacillus subtilis ATCC9372 assessed as increase in cell length at 0.5 times MIC by phase contrast microscopy; format: functional, organism-based
[5] = biological target: T1, Cell division protein FtsZ (Bacillus subtilis) (UniProt A5Z1V5); assay: Induction of FtsZ polymerization in Bacillus subtilis assessed as bundling of FtsZ protofilaments at 10 ug/ml preincubated for 15 mins followed by GTP addition measured after 10 mins by TEM analysis; settings: dose 10.0 µg/ml, time 25.0 min
T1 sequence (whole entry): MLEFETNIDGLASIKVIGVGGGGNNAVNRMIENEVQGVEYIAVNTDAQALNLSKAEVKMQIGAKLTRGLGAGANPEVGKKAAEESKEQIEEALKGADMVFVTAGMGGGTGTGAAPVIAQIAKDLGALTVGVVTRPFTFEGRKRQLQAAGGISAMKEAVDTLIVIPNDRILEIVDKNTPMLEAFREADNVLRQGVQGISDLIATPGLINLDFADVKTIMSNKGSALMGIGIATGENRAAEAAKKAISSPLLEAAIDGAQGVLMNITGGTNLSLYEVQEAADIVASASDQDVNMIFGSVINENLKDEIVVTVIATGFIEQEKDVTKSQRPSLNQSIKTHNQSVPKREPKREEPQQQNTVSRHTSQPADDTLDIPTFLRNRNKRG

Staphylococcus aureus [6] = assay: Disruption of inner membrane in Staphylococcus aureus ATCC25923 measured after 12 mins by PI staining based analysis; format: functional, organism-based
Escherichia coli [7] = assay: Disruption of inner membrane in Escherichia coli ATCC25922 measured after 12 mins by PI staining based analysis; format: functional, organism-based
Escherichia coli [8] = assay: Disruption of outer membrane in Escherichia coli ATCC25922 measured after 10 mins by NPN dye based analysis; format: functional, organism-based; settings: dose 4-16 µg/ml
Staphylococcus aureus [9] = assay: Induction of morphological change in Staphylococcus aureus ATCC25923 assessed as loss of bacterial membrane integrity at 16 times MIC incubated for 2 hrs by TEM analysis; format: functional, organism-based
Staphylococcus aureus [10] = assay: Induction of morphological change in Staphylococcus aureus ATCC25923 assessed as leakage of cell contents at 16 times MIC incubated for 2 hrs by TEM analysis; format: functional, organism-based
Staphylococcus aureus [11] = assay: Disruption of inner membrane in Staphylococcus aureus ATCC25923 at 0.5 ug/ml measured after 12 mins by PI staining based analysis; format: functional, organism-based; settings: dose 0.5 µg/ml
Staphylococcus aureus [12] = assay: Antibacterial activity against Staphylococcus aureus ATCC25923 infected in Kunming mouse model assessed as bacterial growth reduction at 5 to 25 mg/kg, ip; format: functional, organism-based; settings: dose 5-25 mg/kg

## C[n+]1cc(-c2ccccc2)c(/C=C/c2ccc(C(C)(C)C)cc2)cc1-c1ccc(C(C)(C)C)cc1.[I-]
Acinetobacter baumannii
  Ratio: 2
Bacillus subtilis [1]
  Ratio: 2
Staphylococcus aureus [2]
  Ratio: 4
[3]
  MIC: 0.5 µg/mL
Enterococcus faecalis
  MIC: 0.5 µg/mL
Enterococcus faecium
  MIC: 0.5 µg/mL
Bacillus subtilis [4]
  Activity: Active
[5]
  Activity: Active
Staphylococcus aureus [6]
  Activity: Dose-Dependent Effect
Escherichia coli [7]
  Activity: Dose-Dependent Effect
Escherichia coli [8]
  Activity: Dose-Dependent Effect
Staphylococcus aureus [9]
  Activity: Active
Staphylococcus aureus [10]
  Activity: Active
Staphylococcus aureus [11]
  Activity: Active
Staphylococcus aureus [12]
  Activity: Active

Source: ChEMBL document CHEMBL5537115, “New broad-spectrum and potent antibacterial agents with dual-targeting mechanism: Promoting FtsZ polymerization and disrupting bacterial membranes” (Eur J Med Chem, 2024)
